Laboratory results published in paper PMC10257182, “Discovery of senolytics using machine learning” (Nature Communications, 2023).
Values joined by “and” are separate entries in the source; they are usually repeats but may differ in a detail not shown here. Equal values may be shown once.

Experiments:
Assay type in all cases: cell-based, human
[1] = test system: IMR90 cells at passage 27 (replicative senescence); experiment: Cell survival assay using crystal violet staining, replicative senescence; conditions: for % Cell Survival: Replicative Senescence (RS) cells, individual replicate values, Control DMSO = 100
Source text: IMR90 (CCL-186) human foetal lung fibroblasts and A549 (CCL-185) human lung adenocarcinoma cells were obtained from the American Type Culture Collection (ATCC, Manassas, VA). The cell lines were confirmed to be mycoplasma negative (Lonza MycoAlert, cat #LT07-118). IMR90 ER:RAS is a derivative of IMR90 cells expressing a switchable version of oncogenic H-Ras[84]. IMR90 ER:RAS and A549 cells were maintained in Dulbecco’s Modified Eagle Medium (DMEM, ThermoFisher) supplemented with foetal bovine serum (10%), L-glutamine (2 mM, ThermoFisher), and antibiotic-antimycotic solution (1%, ThermoFisher) and incubated under standard tissue culture conditions (37 °C and 5% CO2). For induction of the senescent phenotype, IMR90-ER:RAS cells were cultured in hydroxytamoxifen (4-OHT) (Sigma) added media at 100 nM final concentration. IMR90 were kept in culture for over 27 passages for replicative senescence. Cells were tested for mycoplasma on a regular basis.
(§1) Equal numbers of control and senescent cells were plated at high density on multiwell plates just before senolytic treatment addition. After treatment, cells were fixed on 0.5% glutaraldehyde (Sigma) and then dried at RT overnight. Then, wells were stained with crystal violet solution for 3 h, washed and dried. Once they were completely dry, the plates were scanned for records. Quantification was performed extracting the staining with 1% acetic acid and measuring the final solution by absorbance at 595 nm.

[2] = test system: NOXA mRNA in senescent IMR90 ER:RAS cells; experiment: NOXA mRNA expression by RT-qPCR, OIS; conditions: for NOXA mRNA expression: relative to ER:STOP DMSO = 1, individual replicate values
Experimental: Total RNA was isolated using RNAeasy kit (Quiagen). cDNA was generated with reverse transcriptase iScript (Bio-Rad). RT-qPCR was performed using SYBR Select Master Mix (Applied Biosystems) in OneStepPlus detection system (Applied Biosystems). Oligos for amplification were: NOXA Fw-[…] and Rv-[…]; b-ACTIN Fw-[…] and Rv-[…]; IL1a Fw-[…] and Rv- […]; IL1b Fw-[…] and Rv- […]; IL8 Fw-[…] and Rv-[…]; p16 Fw-CGGTCGGAGGCCGATCCAG and Rv- […]; p21Fw-[…] and Rv- […].

[3] = test system: Na+/K+ ATPase pump (intracellular K+) in senescent IMR90 ER:RAS cells; experiment: Intracellular K+ determination with Asante staining, OIS; conditions: for Asante Mean intensity / Mean (Asante Mean intensity, Tukey test details): FIG 4E, ER:RAS cells; for Asante Mean intensity: individual replicate values; for Mean (Asante Mean intensity, Tukey test details): mean of n=7
Experimental: Cells were cultured for control and senescent phenotype and then treated with the senolytics oleandrin, ouabain and periplocin at 10 nM for 72 h. Asante (Asante Potassium Green-2 AM, abcam ab142806) was added to the culture 30 min before fixation, following manufacturer instructions. DAPI staining was done before image acquisition on Nikon TI2 microscope (20x). Image analysis was performed using ImageJ 1.53k for setting intensity threshold and measuring mean intensity.

[4] = test system: control IMR90 ER:STOP cells; experiment: Cell survival assay using crystal violet staining, OIS, control cells; design: % Cell Survival: concentration or dose not given beside the values; conditions: for % Cell Survival / Mean (cell survival, Tukey test details): FIG 4B, ER:STOP cells; for % Cell Survival: individual replicate values, ER:STOP DMSO = 100; for Mean (cell survival, Tukey test details): mean of n=12 as fraction of STOP DMSO = 1
Experimental: as §1

[5] = test system: proliferating IMR90 cells; experiment: BrdU incorporation proliferation assay; conditions: for % BrdU positive cells, mean (Test details, Mean 2) / % BrdU positive cells: IMR90 cells; for % BrdU positive cells, mean (Test details, Mean 2): n 4; for % BrdU positive cells: single replicates (SUP FIG 9G); for proliferation by BrdU incorporation, in words: proliferating IMR90 cells, 10 nM
Experimental: 5-bromo-2′-deoxyuridine (BrdU) incorporation was used to measure the number of cells actively replicating DNA. Cells were incubated with 10 μM BrdU (85811, Sigma) for 18 h. After that, cells were fixed with 4% Paraformaldehyde, permeabilised, blocked and then stained for immunofluorescence using BrdU primary antibody (555627 BD Pharmigen), Alexa fluor secondary for detection, and DAPI staining for cell counting. Acquisition was done with a Nikon TI2 microscope and analysis was performed with ImageJ for cell counting.

[6] = test system: caspase 3/7 activity in senescent IMR90 ER:RAS cells; experiment: Caspase 3/7 activity assay; design: Caspase 3/7 activity time course (SUP FIG 9F) / Caspase 3/7 activity time course (SUP FIG 9F exp not shown): unit not given here; conditions: for Caspase 3/7 activity time course (SUP FIG 9F) / Caspase 3/7 activity time course (SUP FIG 9F exp not shown): ER:RAS cells; for Caspase 3/7 activity time course (SUP FIG 9F exp not shown): second experiment, data not shown; for Casp3/7 activity (percentage of green fluorescent cells): ER:RAS, 100 nM 4OHT, 10 nM compound, 35 h
Experimental: IMR90 ER:STOP and IMR90 ER:RAS cells were cultured with 100 nM 4-OHT for 5 days. Cell were then plated in a multiwell plate at high density. Once cells were attached, Caspase 3/7 probe (C10423 Invitrogen) and senolytic drugs, oleandrin, ouabain and periplocin at 10 nM, were added to the media and cultured for 36 h. Time lapse imaging was recorded every hour on a Leica AF6500 microscope (10x). ImageJ 1.53k was used for positive cell counting.

[7] = test system: A549 cells treated with 100 μM etoposide; experiment: Cell survival assay using crystal violet staining, TIS, senescent cells; conditions: for % Cell Survival: Etoposide-treated (senescent) cells, Control DMSO = 100, single replicates (SUP FIG 9E)
Experimental: Equal numbers of control and senescent cells were plated at high density on multiwell plates just before senolytic treatment addition. After treatment, cells were fixed on 0.5% glutaraldehyde (Sigma) and then dried at RT overnight. Then, wells were stained with crystal violet solution for 3 h, washed and dried. Once they were completely dry, the plates were scanned for records. Quantification was performed extracting the staining with 1% acetic acid and measuring the final solution by absorbance at 595 nm. […]
cells per condition is indicated. (d) Cell survival assay measuring the senolytic effect in lung cancer senescent cells. The panels show a representative crystal violet staining of tissue culture dishes of confluent A549 cells treated with 100 μM etoposide and control A549 cells, all treated with 10 nM oleandrin, ouabain and periplocin, and DMSO as vehicle control for 72 hours as indicated. (e) Graph representing the cell survival by quantification of the crystal violet staining of the experiment described in (d), as described in Methods. Data represented as individual datapoints, and bars and error bars representing the mean ± SEM of 14 independent experiments. Statistical analysis was performed using a one-way ANOVA (Tukey’s test) for multiple comparisons. […]
Scale bars represent 100 μm. ns = not significant, * = p < 0.05, ** = p < 0.01, *** = p < 0.001, **** = p < 0.0001. Source data are provided as a Source Data file.

Row | Compound | % Cell Survival ([1]; FIG 4C) | NOXA mRNA expression ([2]; ER:RAS cells, 10 nM) | Asante Mean intensity [3] | Mean (Asante Mean intensity, Tukey test details) [3] | % Cell Survival [4] | Mean (cell survival, Tukey test details) [4] | % BrdU positive cells, mean (Test details, Mean 2) [5] [%] | % BrdU positive cells [5] | proliferation by BrdU incorporation, in words [5] | Caspase 3/7 activity time course (SUP FIG 9F) ([6]; 01:00:00 hours) | Caspase 3/7 activity time course (SUP FIG 9F exp not shown) ([6]; 01:00:00 hours) | Caspase 3/7 activity time course (SUP FIG 9F) ([6]; 05:00:00 hours) | Caspase 3/7 activity time course (SUP FIG 9F exp not shown) ([6]; 05:00:00 hours) | Caspase 3/7 activity time course (SUP FIG 9F) ([6]; 10:00:00 hours) | Caspase 3/7 activity time course (SUP FIG 9F exp not shown) ([6]; 10:00:00 hours) | Caspase 3/7 activity time course (SUP FIG 9F) ([6]; 15:00:00 hours) | Caspase 3/7 activity time course (SUP FIG 9F exp not shown) ([6]; 15:00:00 hours) | Caspase 3/7 activity time course (SUP FIG 9F) ([6]; 20:00:00 hours) | Caspase 3/7 activity time course (SUP FIG 9F exp not shown) ([6]; 20:00:00 hours) | Caspase 3/7 activity time course (SUP FIG 9F) ([6]; 1 day, 1:00:00) | also measured
1 | CO[C@H]1C[C@H](O[C@H]2CC[C@@]3(C)[C@H](CC[C@@H]4[C@@H]3CC[C@]3(C)[C@@H](C5=CC(=O)OC5)[C@@H](OC(C)=O)C[C@]43O)C2)O[C@@H](C)[C@@H]1O [Oleandrin, oleandrin] | 54.5% and 40.7% and 48% and 38.1% and 50.7% and 43.4% and 31.1% and 55% and 50.3% and 37.4% and 44.9% and 40.3% | 43.71 and 48.67 and 52.89 and 50.91 | 67.9 and 72 and 68.8 and 66.6 and 77 and 61.9 | 68.87 | 89.1% and 95.2% and 73.8% and 89.4% and 107.6% and 89% and 95.8% and 77.8% and 100% and 72.7% and 87.5% and 82.7% | 0.8838 | 69.23 | 69.38% and 67.43% and 69.89% and 70.23% | none of the cardiac glycosides induced unwanted changes in proliferation | 0.9 | 0.75 | 1.1 | 1.25 | 2.3 | 3.9 | 3 | 7.9 | 4 | 13.8 | 7.8 | Mean (cell survival, Tukey test details) ([1]; FIG 4C, RS cells, mean of n=12 as fraction of Young DMSO = 1): 0.4453; cellular content in senescent cultures (crystal violet), in words ([1]; replicative senescence IMR90, 10 nM, 72 h): significant reduction in cellular content; NOXA mRNA expression, group mean (Test details, Mean 2) ([2]; ER:RAS cells, 10 nM, mean of n=4): 49.05; NOXA mRNA expression, in words ([2]; OIS IMR90 ER:RAS, 10 nM (Fig. 5c)): significant increase; K+ intracellular concentration, in words ([3]; OIS IMR90, 10 nM, 72 h): significantly reduced; Caspase 3/7 activity time course (SUP FIG 9F exp not shown) ([6]; 1 day, 1:00:00): 16.55; Caspase 3/7 activity time course (SUP FIG 9F) ([6]; 1 day, 6:00:00): 11; Caspase 3/7 activity time course (SUP FIG 9F exp not shown) ([6]; 1 day, 6:00:00): 18.55; Caspase 3/7 activity time course (SUP FIG 9F) ([6]; 1 day, 11:00:00): 13.5; Caspase 3/7 activity time course (SUP FIG 9F exp not shown) ([6]; 1 day, 11:00:00): 19.65; Casp3/7 activity (percentage of green fluorescent cells) [6]: 92.2%; cellular content in senescent cultures (crystal violet), in words ([7]; A549 TIS with etoposide, 10 nM, 72 h): significant reduction in cellular content; % Cell Survival [7]: 39.4% and 53.4% and 51.6% and 7.8% and 48.5% and 38.4% and 46.7% and 32.6% and 33.1% and 7.9% and 36.2% and 37.5% and 30.5% and 41.5%
2 | C[C@@H]1O[C@@H](O[C@H]2C[C@@H](O)[C@]3(CO)[C@H]4[C@H](O)C[C@]5(C)[C@@H](C6=CC(=O)OC6)CC[C@]5(O)[C@@H]4CC[C@]3(O)C2)[C@H](O)[C@H](O)[C@H]1O [Ouabain, ouabain, reference compound] | 94.8% and 97.2% and 95.8% and 90.6% and 106.9% and 98.6% and 108.7% and 109.7% and 103.6% and 106.2% and 99.7% | 4.99 and 3.07 and 6.94 and 6.96 | 73.6 and 91 and 73.5 and 72.9 and 82 and 66.9 | 76.21 | 100.7% and 91.1% and 79.5% and 88.8% and 108.2% and 92.7% and 95.3% and 93.9% and 97.9% and 80.1% and 99.8% and 95% | 0.9358 | 73.84 | 69.37% and 73.68% and 73.67% and 78.62% | none of the cardiac glycosides induced unwanted changes in proliferation | 1.9 | 0.1 | 1.9 | 0.95 | 2.6 | 1.45 | 2.6 | 1.55 | 3 | 2.7 | 4 | cytotoxic activity (crystal violet), in words [4]: no cytotoxic activity; Caspase 3/7 activity time course (SUP FIG 9F exp not shown) ([6]; 1 day, 1:00:00): 4.6; Caspase 3/7 activity time course (SUP FIG 9F) ([6]; 1 day, 6:00:00): 3.9; Caspase 3/7 activity time course (SUP FIG 9F exp not shown) ([6]; 1 day, 6:00:00): 7.55; Caspase 3/7 activity time course (SUP FIG 9F) ([6]; 1 day, 11:00:00): 3.9; Caspase 3/7 activity time course (SUP FIG 9F exp not shown) ([6]; 1 day, 11:00:00): 8.25; Casp3/7 activity (percentage of green fluorescent cells) [6]: 6.4%; % Cell Survival [7]: 83.2% and 99.9% and 99.3% and 62.7% and 92.6% and 102.5% and 88.1% and 123.1% and 123.9% and 68.2% and 105.6% and 95.4% and 114.5% and 91.7%
